Results from ChEMBL document CHEMBL4020740, “Antitubulin effects of aminobenzothiophene-substituted triethylated chromones” (Bioorg Med Chem Lett, 2017).
Calls of active or inactive are those of the source. No cut-off for these calls is given here.

Key:
[1] = Antiproliferative activity against human KBVIN cells by sulforhodamine B assay; format: functional, cell-based
MDA-MB-231 = experiment: Antiproliferative activity against human MDA-MB-231 cells by sulforhodamine B assay
MCF7 = experiment: Antiproliferative activity against human MCF7 cells by sulforhodamine B assay
A549 = experiment: Antiproliferative activity against human A549 cells by sulforhodamine B assay
KB = experiment: Antiproliferative activity against human KB cells by sulforhodamine B assay
[2] = Lipophilicity, log P of the compound; format: physicochemical; conditions: octanol/water
Homo sapiens = organism: Homo sapiens; experiment: Inhibition of tubulin polymerization in interphase stage of human MDA-MB-231 cells at 0.2 uM after 24 hrs by DAPI staining based confocal microscopic analysis

Compound | IC50 [1] [µM] | IC50 (MDA-MB-231) [µM] | IC50 (MCF7) [µM] | IC50 (A549) [µM] | IC50 (KB) [µM] | logP [2] | inhibition (Homo sapiens)
CC(=O)O[C@H]1C(=O)[C@@]2(C)[C@H]([C@H](OC(=O)c3ccccc3)[C@]3(O)C[C@H](OC(=O)[C@H](O)[C@@H](NC(=O)c4ccccc4)c4ccccc4)C(C)=C1C3(C)C)[C@]1(OC(C)=O)CO[C@@H]1C[C@@H]2O [PACLITAXEL] | 2.04 |  |  |  |  |  | 
CCC1=C(OC)C(CC)(CC)C(O)=C(C(=O)/C=C/c2csc3ccc(NC(=O)OC(C)(C)C)cc23)C1=O | 5.45 | 7.48 | 7.01 | 5.1 | 5.88 |  | 
CCC1=C(O)c2c(oc(-c3csc4cc(NC(=O)OC(C)(C)C)ccc34)cc2=O)C(CC)(CC)C1=O | > 40 | > 40 | > 40 | > 40 | > 40 |  | 
CCC1=C(O)c2c(oc(-c3csc4cc(N)ccc34)cc2=O)C(CC)(CC)C1=O |  |  |  |  |  | 2.11 | 
COc1ccc(/C=C\c2cc(OC)c(OC)c(OC)c2)cc1O |  |  |  |  |  |  | Active
CCC1=C(OC)C(CC)(CC)c2oc(-c3csc4cc(NC(=O)OC(C)(C)C)ccc34)cc(=O)c2C1=O | 5.02 | 6.52 | 6.01 | 5.62 | 5.13 |  | 
